Source: paper PMC5218480 (PLoS ONE, 2017)

System: MV-4-11 cells
Assay: Gene expression microarray analysis (Affymetrix PrimeView) and GSEA
Format: cell-based, human
Design: RFU PODN (11730768_x_at) / Fold change /veh PODN (11730768_x_at) / RFU LINC00158 (11744669_a_at) / Fold change /veh LINC00158 (11744669_a_at) / RFU DUSP10 (11751237_a_at) / Fold change /veh DUSP10 (11751237_a_at) / RFU ID3 (11757404_x_at) / Fold change /veh ID3 (11757404_x_at) / RFU PLEKHG5 (11737974_s_at) / Fold change /veh PLEKHG5 (11737974_s_at) / RFU LRRC4B (11730491_at) / Fold change /veh LRRC4B (11730491_at) / RFU GIMAP4 (11747438_a_at) / Fold change /veh GIMAP4 (11747438_a_at) / RFU KRT8 (11758183_x_at) / Fold change /veh KRT8 (11758183_x_at) / RFU CNN1 (11734310_a_at) / Fold change /veh CNN1 (11734310_a_at) / RFU VPS37D (11726825_at) / Fold change /veh VPS37D (11726825_at) / RFU C10orf10 (11716522_x_at) / Fold change /veh C10orf10 (11716522_x_at) / RFU KIR2DL2 /// KIR2DL4 /// KIR2DL5A /// KIR2DL5B /// KIR2DS1 /// KIR2DS2 /// KIR2DS3 /// KIR2DS4 /// KIR3DL3 /// KIR3DL3 /// KIR3DS1 (11738374_at) / Fold change /veh KIR2DL2 /// KIR2DL4 /// KIR2DL5A /// KIR2DL5B /// KIR2DS1 /// KIR2DS2 /// KIR2DS3 /// KIR2DS4 /// KIR3DL3 /// KIR3DL3 /// KIR3DS1 (11738374_at) / RFU C1QL1 (11718748_at) / Fold change /veh C1QL1 (11718748_at) / RFU TMPRSS4 (11747572_a_at) / Fold change /veh TMPRSS4 (11747572_a_at) / RFU HAMP (11756126_x_at) / Fold change /veh HAMP (11756126_x_at) / RFU RNFT2 (11725882_a_at) / Fold change /veh RNFT2 (11725882_a_at) / RFU NR4A2 (11747474_a_at) / Fold change /veh NR4A2 (11747474_a_at) / RFU ABCC12 (11746883_a_at) / Fold change /veh ABCC12 (11746883_a_at) / RFU TMEM136 (11760407_x_at) / Fold change /veh TMEM136 (11760407_x_at) / RFU CLDN22 /// WWC2 (11732394_at) / Fold change /veh CLDN22 /// WWC2 (11732394_at) / RFU HLA-DPB1 (11760878_x_at) / Fold change /veh HLA-DPB1 (11760878_x_at) / RFU SPINT1 (11716480_a_at) / Fold change /veh SPINT1 (11716480_a_at) / RFU GAP43 (11754022_s_at) / Fold change /veh GAP43 (11754022_s_at) / RFU A4GNT (11735810_at) / Fold change /veh A4GNT (11735810_at) / RFU PRB3 (11715151_x_at) / Fold change /veh PRB3 (11715151_x_at) / RFU TUBB4B (11761932_at) / Fold change /veh TUBB4B (11761932_at) / RFU CAPN14 (11732068_a_at) / Fold change /veh CAPN14 (11732068_a_at) / RFU TMCC2 (11721928_a_at) / Fold change /veh TMCC2 (11721928_a_at) / RFU IRGQ (11745062_a_at) / Fold change /veh IRGQ (11745062_a_at) / RFU FAM174B (11720279_a_at) / Fold change /veh FAM174B (11720279_a_at) / RFU TMPRSS4 (11748680_a_at) / Fold change /veh TMPRSS4 (11748680_a_at) / RFU FAM212B (11763350_a_at) / Fold change /veh FAM212B (11763350_a_at) / RFU PLEKHG5 (11743358_a_at) / Fold change /veh PLEKHG5 (11743358_a_at) / RFU ZSCAN30 (11745921_a_at) / Fold change /veh ZSCAN30 (11745921_a_at) / RFU CMKLR1 (11741424_a_at) / Fold change /veh CMKLR1 (11741424_a_at) / RFU LOC101060620 /// MAPK8IP1 (11723275_at) / Fold change /veh LOC101060620 /// MAPK8IP1 (11723275_at) / RFU SPTSSB (11747773_x_at) / Fold change /veh SPTSSB (11747773_x_at) / RFU PRSS12 (11739890_at) / Fold change /veh PRSS12 (11739890_at) / RFU BIN1 (11741810_x_at) / Fold change /veh BIN1 (11741810_x_at) / RFU WNT11 (11732464_a_at) / Fold change /veh WNT11 (11732464_a_at) / RFU C10orf10 (11716521_a_at) / Fold change /veh C10orf10 (11716521_a_at) / RFU C5orf56 (11738089_at) / Fold change /veh C5orf56 (11738089_at) / RFU CYB561 (11721691_x_at) / Fold change /veh CYB561 (11721691_x_at) / RFU ANKRD19P (11752326_a_at) / Fold change /veh ANKRD19P (11752326_a_at) / RFU OR2T12 /// OR2T33 /// OR2T8 (11738714_s_at) / Fold change /veh OR2T12 /// OR2T33 /// OR2T8 (11738714_s_at) / RFU VCAN (11748164_a_at) / Fold change /veh VCAN (11748164_a_at) / RFU JSRP1 (11732532_at) / Fold change /veh JSRP1 (11732532_at) / RFU KRTAP10-11 (11738290_x_at) / Fold change /veh KRTAP10-11 (11738290_x_at) / RFU MYO3A (11730013_a_at) / Fold change /veh MYO3A (11730013_a_at) / RFU EBF3 (11725865_a_at) / Fold change /veh EBF3 (11725865_a_at) / RFU CAMK2N1 (11719241_x_at) / Fold change /veh CAMK2N1 (11719241_x_at) / RFU C5orf56 (11738088_a_at) / Fold change /veh C5orf56 (11738088_a_at) / RFU OLFML3 (11715873_a_at) / Fold change /veh OLFML3 (11715873_a_at) / RFU LOC100653217 /// NTM (11731650_a_at) / Fold change /veh LOC100653217 /// NTM (11731650_a_at) / RFU MAPK11 (11762145_a_at) / Fold change /veh MAPK11 (11762145_a_at) / RFU FIZ1 (11724087_x_at) / Fold change /veh FIZ1 (11724087_x_at) / RFU OASL (11726364_x_at) / Fold change /veh OASL (11726364_x_at) / RFU SOX15 (11748057_x_at) / Fold change /veh SOX15 (11748057_x_at) / RFU CD79A (11719716_a_at) / Fold change /veh CD79A (11719716_a_at) / RFU HIST1H1D (11736915_at) / Fold change /veh HIST1H1D (11736915_at) / RFU CASKIN2 (11723855_a_at) / Fold change /veh CASKIN2 (11723855_a_at) / RFU LOC730098 (11760151_x_at) / Fold change /veh LOC730098 (11760151_x_at) / RFU OR4N2 (11742367_at) / Fold change /veh OR4N2 (11742367_at) / RFU PRRT2 (11749266_a_at) / Fold change /veh PRRT2 (11749266_a_at) / RFU SNX32 (11753110_a_at) / Fold change /veh SNX32 (11753110_a_at) / RFU CDHR5 (11726645_a_at) / Fold change /veh CDHR5 (11726645_a_at) / RFU RCAN1 (11760418_a_at) / Fold change /veh RCAN1 (11760418_a_at) / RFU FAM167A (11723789_a_at) / Fold change /veh FAM167A (11723789_a_at) / RFU FAM26E (11764081_at) / Fold change /veh FAM26E (11764081_at) / RFU ISYNA1 (11749810_s_at) / Fold change /veh ISYNA1 (11749810_s_at) / RFU ACY1 (11761880_at) / Fold change /veh ACY1 (11761880_at) / RFU 11764098_at / Fold change /veh 11764098_at / RFU SAMD14 (11745864_x_at) / Fold change /veh SAMD14 (11745864_x_at) / RFU NPB (11741838_a_at) / Fold change /veh NPB (11741838_a_at) / RFU TMPRSS6 (11731388_a_at) / Fold change /veh TMPRSS6 (11731388_a_at) / RFU KRTAP10-2 (11738614_at) / Fold change /veh KRTAP10-2 (11738614_at) / RFU ARHGAP8 /// PRR5-ARHGAP8 (11727945_x_at) / Fold change /veh ARHGAP8 /// PRR5-ARHGAP8 (11727945_x_at) / RFU KRTAP5-7 /// NADSYN1 (11734609_at) / Fold change /veh KRTAP5-7 /// NADSYN1 (11734609_at) / RFU RASL12 (11751679_a_at) / Fold change /veh RASL12 (11751679_a_at) / RFU CDKN2B (11736163_a_at) / Fold change /veh CDKN2B (11736163_a_at) / RFU PRF1 (11729649_at) / Fold change /veh PRF1 (11729649_at) / RFU, ZNF638 /// ZNF638-IT1 / Fold change vs veh, ZNF638 /// ZNF638-IT1 / RFU, PANK3 / Fold change vs veh, PANK3 / RFU, SH3YL1 / Fold change vs veh, SH3YL1 / RFU, ZEB2 / Fold change vs veh, ZEB2 / RFU, NRIP1 / Fold change vs veh, NRIP1 / RFU, PTTG1IP / Fold change vs veh, PTTG1IP / RFU, CAPN2 / Fold change vs veh, CAPN2 / RFU, MED14 / Fold change vs veh, MED14 / RFU, SNORA58 / Fold change vs veh, SNORA58 / RFU, C1orf63 / Fold change vs veh, C1orf63 / RFU, LRRFIP1 / Fold change vs veh, LRRFIP1 / RFU, NDUFAF7 / Fold change vs veh, NDUFAF7 / RFU, SLC12A2 / Fold change vs veh, SLC12A2 / RFU, IBTK / Fold change vs veh, IBTK / RFU, ESF1 / Fold change vs veh, ESF1 / Fold change vs veh, TMEM50B / RFU, TAOK1 / Fold change vs veh, TAOK1 / RFU, ACBD3 / Fold change vs veh, ACBD3 / RFU, TMA16 / Fold change vs veh, TMA16 / RFU, RWDD3 / Fold change vs veh, RWDD3 / RFU, BCAT1 / Fold change vs veh, BCAT1 / RFU, EDEM3 / Fold change vs veh, EDEM3 / RFU, TMEM33 / Fold change vs veh, TMEM33 / RFU, WDR75 / Fold change vs veh, WDR75 / RFU, AHCTF1 / Fold change vs veh, AHCTF1 / RFU, TFRC / Fold change vs veh, TFRC / RFU, ZDHHC17 / Fold change vs veh, ZDHHC17 / RFU, NOM1 / Fold change vs veh, NOM1 / RFU, ARL8B / Fold change vs veh, ARL8B / RFU, ZBTB11 / Fold change vs veh, ZBTB11 / RFU, TAMM41 / Fold change vs veh, TAMM41 / RFU, KIAA1704 /// LOC100996395 / Fold change vs veh, KIAA1704 /// LOC100996395 / RFU, ING1 / Fold change vs veh, ING1 / RFU, TRMT61B / Fold change vs veh, TRMT61B / RFU, FUBP3 / Fold change vs veh, FUBP3 / RFU, TP53 / Fold change vs veh, TP53 / RFU, TNKS2 / Fold change vs veh, TNKS2 / RFU, ZFP14 / Fold change vs veh, ZFP14 / RFU, ACTR2 / Fold change vs veh, ACTR2 / RFU, PPP3R1 / Fold change vs veh, PPP3R1 / RFU, PIK3R1 / Fold change vs veh, PIK3R1 / RFU, HNRNPA1 / Fold change vs veh, HNRNPA1 / RFU, RNF170 / Fold change vs veh, RNF170 / RFU, ZNF28 / Fold change vs veh, ZNF28 / RFU, RNGTT / Fold change vs veh, RNGTT / RFU, OGT / Fold change vs veh, OGT / RFU, BRD1 / Fold change vs veh, BRD1 / RFU, MARS / Fold change vs veh, MARS / RFU, ZNF655 / Fold change vs veh, ZNF655 / RFU, FAHD1 / Fold change vs veh, FAHD1 / RFU, BDP1 / Fold change vs veh, BDP1 / RFU, LRRCC1 / Fold change vs veh, LRRCC1 / RFU, ARID1A / Fold change vs veh, ARID1A / RFU, ZNF146 / Fold change vs veh, ZNF146 / RFU, ZNF330 / Fold change vs veh, ZNF330 / RFU, GPN3 / Fold change vs veh, GPN3 / RFU, C9orf123 / Fold change vs veh, C9orf123 / RFU, N4BP2L2 / Fold change vs veh, N4BP2L2 / RFU, ARFIP1 / Fold change vs veh, ARFIP1 / RFU, FAM179B / Fold change vs veh, FAM179B / RFU, BCL10 / Fold change vs veh, BCL10 / RFU, UHRF1BP1L / Fold change vs veh, UHRF1BP1L / RFU, BET1 / Fold change vs veh, BET1 / RFU, CNOT2 / Fold change vs veh, CNOT2 / RFU, ZNF268 / Fold change vs veh, ZNF268 / Fold change vs veh, ZNF507 / RFU, DGCR2 / Fold change vs veh, DGCR2 / RFU, WDSUB1 / Fold change vs veh, WDSUB1 / Fold change vs veh, HSP90B1 /// MIR3652 / RFU, ADSS / Fold change vs veh, ADSS / RFU, GK / Fold change vs veh, GK / RFU, ZNF148 / Fold change vs veh, ZNF148 / RFU, TAF9 / Fold change vs veh, TAF9 / RFU, SLC1A5 / Fold change vs veh, SLC1A5 / RFU, SLMO2 / Fold change vs veh, SLMO2 / RFU, ABCC4 / Fold change vs veh, ABCC4 / RFU, LOC101060439 /// RAP1B / Fold change vs veh, LOC101060439 /// RAP1B / RFU, RFX7 / Fold change vs veh, RFX7 / RFU, GTPBP10 / Fold change vs veh, GTPBP10 / RFU, CNEP1R1 / Fold change vs veh, CNEP1R1 / RFU, BIVM-ERCC5 /// ERCC5 / Fold change vs veh, BIVM-ERCC5 /// ERCC5 / RFU, ILF3 / Fold change vs veh, ILF3 / RFU 11762660_at / Fold change /veh 11762660_at / RFU VCAN (11757783_s_at) / Fold change /veh VCAN (11757783_s_at) / RFU DDX43 (11728927_at) / Fold change /veh DDX43 (11728927_at) / RFU KRT8 (11758188_x_at) / Fold change /veh KRT8 (11758188_x_at) / RFU NKD1 (11759106_at) / Fold change /veh NKD1 (11759106_at) / RFU SRD5A1 (11742802_a_at) / Fold change /veh SRD5A1 (11742802_a_at) / RFU TPSAB1 /// TPSB2 (11721975_s_at) / Fold change /veh TPSAB1 /// TPSB2 (11721975_s_at) / RFU GSTM3 (11746129_a_at) / Fold change /veh GSTM3 (11746129_a_at) / RFU IL23R (11737362_x_at) / Fold change /veh IL23R (11737362_x_at) / RFU TMEM51 (11727254_a_at) / Fold change /veh TMEM51 (11727254_a_at) / RFU PIWIL2 (11732686_x_at) / Fold change /veh PIWIL2 (11732686_x_at) / RFU ORM1 (11744905_x_at) / Fold change /veh ORM1 (11744905_x_at) / RFU CCDC152 (11743942_at) / Fold change /veh CCDC152 (11743942_at) / RFU ECM1 (11717891_a_at) / Fold change /veh ECM1 (11717891_a_at) / RFU IL23R (11748794_a_at) / Fold change /veh IL23R (11748794_a_at) / RFU TNFAIP8L3 (11732012_x_at) / Fold change /veh TNFAIP8L3 (11732012_x_at) / RFU MBOAT4 (11741988_at) / Fold change /veh MBOAT4 (11741988_at) / RFU 11764193_at / Fold change /veh 11764193_at / RFU TMEM53 (11763286_at) / Fold change /veh TMEM53 (11763286_at) / RFU MAGEB2 (11727129_at) / Fold change /veh MAGEB2 (11727129_at) / RFU TMEM200A (11744735_a_at) / Fold change /veh TMEM200A (11744735_a_at) / RFU CCDC152 (11751479_a_at) / Fold change /veh CCDC152 (11751479_a_at) / RFU FAM211A (11726209_a_at) / Fold change /veh FAM211A (11726209_a_at) / RFU RGS16 (11746705_a_at) / Fold change /veh RGS16 (11746705_a_at) / RFU VCAN (11755009_s_at) / Fold change /veh VCAN (11755009_s_at) / RFU RHOB (11743442_s_at) / Fold change /veh RHOB (11743442_s_at) / RFU RGS16 (11720943_a_at) / Fold change /veh RGS16 (11720943_a_at) / RFU RGS16 (11720944_at) / Fold change /veh RGS16 (11720944_at) / RFU, VPS4B / Fold change vs veh, VPS4B / RFU, CREB1 / Fold change vs veh, CREB1 / RFU, DNAJC13 / Fold change vs veh, DNAJC13 / RFU, GNAQ / Fold change vs veh, GNAQ / RFU, CDK5R1 / Fold change vs veh, CDK5R1 / RFU, ZRANB3 / Fold change vs veh, ZRANB3 / RFU, CUL4A / Fold change vs veh, CUL4A / RFU, CCNY / Fold change vs veh, CCNY / RFU, UFL1 / Fold change vs veh, UFL1 / RFU, COG3 / Fold change vs veh, COG3 / RFU, DIAPH2 / Fold change vs veh, DIAPH2 / RFU, SKA2 / Fold change vs veh, SKA2 / RFU, AFF3 / Fold change vs veh, AFF3 / RFU, LMF1 / Fold change vs veh, LMF1 / RFU, IPO11 / Fold change vs veh, IPO11 / RFU, DFFB / Fold change vs veh, DFFB / RFU, FOXP1 / Fold change vs veh, FOXP1 / RFU, CARD8 / Fold change vs veh, CARD8 / RFU, STRN3 / Fold change vs veh, STRN3 / RFU, ADK / Fold change vs veh, ADK / RFU, RASSF2 / Fold change vs veh, RASSF2 / RFU, WIPF1 / Fold change vs veh, WIPF1 / RFU, LARP1B / Fold change vs veh, LARP1B / RFU, RASA1 / Fold change vs veh, RASA1 / RFU, RB1 / Fold change vs veh, RB1 / RFU, PPFIA1 / Fold change vs veh, PPFIA1 / RFU, MAT2A / Fold change vs veh, MAT2A / RFU, CCT5 / Fold change vs veh, CCT5 / RFU, WDR92 / Fold change vs veh, WDR92 / RFU, CUX1 / Fold change vs veh, CUX1 / RFU, TTC7A / Fold change vs veh, TTC7A / RFU, TMEM135 / Fold change vs veh, TMEM135 / RFU, DEPTOR / Fold change vs veh, DEPTOR / RFU, CPM / Fold change vs veh, CPM / RFU, DNAJB6 / Fold change vs veh, DNAJB6 / RFU, CACNA2D3 / Fold change vs veh, CACNA2D3 / RFU, DTX4 / Fold change vs veh, DTX4 / RFU, TFCP2 / Fold change vs veh, TFCP2 / RFU, GMCL1 /// GMCL1P1 / Fold change vs veh, GMCL1 /// GMCL1P1 / RFU, AEBP2 / Fold change vs veh, AEBP2 / RFU, SNHG1 /// SNORD22 /// SNORD25 /// SNORD26 /// SNORD27 /// SNORD28 /// SNORD29 /// SNORD31 / Fold change vs veh, SNHG1 /// SNORD22 /// SNORD25 /// SNORD26 /// SNORD27 /// SNORD28 /// SNORD29 /// SNORD31 / Fold change (Aza/veh), C12orf56 (ProbeSet 11735607_a_at) / Fold change (ACY-1035/veh), C12orf56 (ProbeSet 11735607_a_at) / Fold change (Aza/veh), FGFR1OP (ProbeSet 11751329_s_at) / Fold change (ACY-1035/veh), FGFR1OP (ProbeSet 11751329_s_at) / Fold change (Aza/veh), VPS36 (ProbeSet 11739960_a_at) / Fold change (ACY-1035/veh), VPS36 (ProbeSet 11739960_a_at) / RFU SYPL1 (11715823_x_at) / Fold change /veh SYPL1 (11715823_x_at) / RFU IGFBP7 (11715501_s_at) / Fold change /veh IGFBP7 (11715501_s_at) / RFU REEP3 (11722064_at) / Fold change /veh REEP3 (11722064_at) / RFU IGLL1 (11728026_x_at) / Fold change /veh IGLL1 (11728026_x_at): dose or concentration left out as unconfirmed
Conditions: ProbeSet 11749781_s_at; LIST B

**Q.** For `Nc1ncn([C@@H]2O[C@H](CO)[C@@H](O)[C@H]2O)c(=O)n1` [azacitidine], which “Fold change vs veh, BCAT1” value is on record?
**A.** 0.85
